# Measurements reported in patent US8512958B2, “Methods of identifying agents that modulate mitochondrial function” (The J. David Gladstone Institutes, priority 2005, dated 2013).
# Entries after “also recorded” stand apart in the source; their conditions may differ.
# Key:
# [1] = tested on: differentiated PC12 cells; test: Time-lapse recording of mitochondrial motility and morphology in neurites of differentiated PC12 cells (exogenous agents); settings: for mitochondrial motility, increase: nimodipine 5 μM together with AP5 50 μM, with or without apoE forms
# Neuro-2a cells = test: MTT cell survival assay of Neuro-2a cells transiently transfected with apoE4 cDNA constructs; format: cell-based, mouse; settings: expressed in Neuro-2a cells, MTT assay 48 h after transfection
# Method: Cell Culture and Transfection. […] ApoE4 expression levels were determined by anti-apoE western blotting of cell lysates and media. […] Thus, the results are not due to overexpression.
# Cell Survival. […] Cell survival was estimated with an MTT colorimetric assay (52) 48 h after transfection.
# [2] = tested on: dendrites of primary cortical neurons; test: Number, size and occupancy of mitochondria in dendrites of primary cortical neurons; format: cell-based, rat; settings: primary neurons treated with apoE
# [3] = tested on: rat primary cortical neurons; test: Dendritic spine density (EGFP-β-actin, confocal microscopy) in primary cortical neurons; format: cell-based
# Method: (§1) Cortices or hippocampi from neonatal rat pups were dissected and treated with papain (10 units ml^−1, 30 min; Worthington Biochemical, Lakewood, N.J.) and the with trypsin inhibitor (10 mg ml^−1, 15 min). Dissociated neurons were plated on 12-mm glass coverslips (Fisher Scientific, Hampton, N.H.) (8×10^5 cells per cm^2) coated with poly-L-lysine. After 2 h, cells were transferred into Neurobasal medium supplemented with B27, 1 mM L-glutamine, and 100 μg/ml penicillin/streptomycin (Invitrogen). Neurons were routinely transfected after 10 days in culture and used for experiments 5-7 days after transfection. Cells were maintained in a humidified incubator with 5% CO2 at 37° C.
# Neuronal activation and inhibition.
# (§2) Confocal Microscopy. Cultured primary neurons treated with various forms of apoE were fixed for 20 min in ice-cold 4% paraformaldehyde in PBS and mounted with Vectashield (Vector Laboratories Burlingame, Calif.). Digital images of EGFP and dsRed fluorescence in primary neurons were collected on a laser-scanning confocal microscope with a Bio-Rad Radiance 2000 scanhead (Bio-Rad, Hercules, Calif.) mounted on a BX60 microscope (Olympus, Melville, N.Y.) with a 60× oil objective.
# To assess the effect of exogenous apoE on dendritic spine density, rat primary cortical and hippocampal neurons, which had been cultured for 14-17 days in vitro, were incubated with different forms of apoE (7.5 μg/ml) for 24 h. Four to six days before the experiment, the cells were transfected with EGFP-tagged β-actin (EGFP-β-actin), a cytoskeletal protein that is abundant in dendritic spines. […] Other measures of neuronal complexity (e.g., dendritic field and length of dendritic extensions) were not affected by any form of apoE. […] FIGS. 12A and 12B. […] (a) Confocal micrographs of synaptic EGFP-β-actin fluorescence in dendrites of rat primary cortical and hippocampal neurons (16 days in vitro) incubated for 24 h with or without (control) various forms of apoE (7.5 μg/ml). Scale bar=5 μm. (b) Number of spines per μm of dendritic extension. […]
# [4] = tested on: rat primary hippocampal neurons; test: Dendritic spine density (EGFP-β-actin, confocal microscopy) in primary hippocampal neurons; format: cell-based; settings: apoE 7.5 μg/ml, 24 h
# Method: as §1, §2
# To assess the effect of exogenous apoE on dendritic spine density, rat primary cortical and hippocampal neurons, which had been cultured for 14-17 days in vitro, were incubated with different forms of apoE (7.5 μg/ml) for 24 h. […]
# [5] = repetitive depolarization with KCl 90 mM, 4×3 min
# [6] = cortical neurons, apoE 7.5 μg/ml, 24 h
molecule,measurement,setting,value
"NC(CCCP(=O)(O)O)C(=O)O (centres unmarked) [AP5, 2-amino-5-phosphonovalerate]","mitochondrial motility, increase",[1]; 24 h,about 30%
[Cl-].[K+] [KCl],average moving velocity (moving distance/15 min) in the anterograde direction,[1]; [5],drastically reduced
same,mitochondrial moving velocity (moving distance/time moving),[1]; [5],unaltered; also recorded: did not affect
same,net moving distance in the anterograde direction,[1]; [5],drastically reduced
same,retrograde motility (toward the soma),[1]; [5],No significant changes
same,"mitochondrial index, reduced","[1]; repetitive depolarizations with KCl (4×, 90 mM)",22.5%
"NC1=N[C@H](O)[C@H]2[C@H]3O[C@]4(O)O[C@@H]([C@@H](O)[C@@]2(N1)[C@@H]4O)[C@]3(O)CO [TTX, tetrodotoxin]",mitochondrial dynamics,[1],increased
same,mitochondrial index,[1],without affecting; also recorded: not affected
COCCOC(=O)C1=C(C)NC(C)=C(C(=O)OC(C)C)C1c1cccc([N+](=O)[O-])c1 (centres unmarked) [nimodipine],"mitochondrial motility, increase",[1]; 24 h,about 30%
L279Q: full-length WT apoE4 with single mutation L279Q,neurotoxicity,Neuro-2a cells,as neurotoxic as apoE4(1-272)
Q284A: full-length WT apoE4 with single mutation Q284A,neurotoxicity,Neuro-2a cells,as neurotoxic as apoE4(1-272)
"apoE4: Human apolipoprotein E4 isoform, 299 amino acids (SEQ ID NO:1); recombinant or expressed",number of mitochondria at dendritic spines compared with apoE3-treated cells or controls,[2],many fewer
same,"density of dendritic spines, decrease compared with controls",[3]; [6],13±5%
same,"density of dendritic spines, reduction compared with apoE3",[3]; [6],27±5%
same,"spinal density in response to neuronal activation, reduced as compared to controls","[3]; primary cortical neurons, apoE 7.5 μg/ml 24 h, repetitive KCl depolarization",48±11%
same,"density of dendritic spines, decrease compared with controls",[4],19±5%
same,"density of dendritic spines, reduction compared with apoE3",[4],28±4%
same,"extent of the mitochondrial motility response to neuronal activation, reduced to","[1]; apoE 7.5 μg/ml 24 h, then repetitive depolarizations with KCl",30%
same,average mitochondrial length,"[1]; exogenous apoE 7.5 μg/ml, 24 h",significantly reduced
same,retrograde velocity / retrograde direction motility,"[1]; exogenous apoE 7.5 μg/ml, 24 h",unaffected
